The subject of one data set is NT3 (Neurotrophin 3). The data set can be described thus: Quantitative RT-PCR, relative gene expression of NT3 in SH-SY5Y cells. The data set is classed as cell-based, human. The settings on record: 30 μM each, 14-day exposition. As for the experimental part: (§1) SH-SY5Y cell lines, which were provided by the institute of human genetics of university hospital Eppendorf and which they in turn received from Braunschweig resource center, were used again for the RT-PCR experiments (reverse transcriptase polymerase chain reaction) carried out for this purpose.
(§2) The cells were incubated in MEM (Minimum essential medium, Life Technologies) with 10% FCS (fetal calf serum, Biochrom AG) and penicillin/streptomycin (Biochrom AG). The cells were seeded with a density of 1×10^5 cells/cm^2 in 25 cm^2 cell culture bottles (Falcon, cell culture treated) with 5 mL medium. […]
(§3) The RNA-isolation was done with the HighPure RNA Isolation kit of the company Roche. […] The concentration of RNA was measured with nanoDrop spectrometer and the RNA integrity was determined with the aid of the Bioanalyzer 2100 (Agilent). […]
(§4) After the reaction, this run was diluted 1:4 and thereof 2 μL per each quantitative RT-PCR were used. This was performed in a LightCycler 480 under standard conditions in the SybrGreen format with annealing temperatures determined for each primer individually. […]
(§5) The specificity was verified by melting curve analysis and subsequent gel electrophoresis. For each PCR the PCR efficiency and the Cq value was determined by the program LinRegPCR and these were used in further calculations. […]

The test system of data set [1] is Cbln (Cerebellin 1 precursor protein). The data set can be described thus: Quantitative RT-PCR, relative gene expression of Cbln in SH-SY5Y cells. The format is cell-based, human. The settings on record: 30 μM each, except after 2-day exposition. Here is the method: as §1, §2, §3, §4, §5
The subject of data set [2] is outer hair cells (OHC) in the inner ear. The data set can be described thus: Immunohistochemical experiments: dying of outer hair cells after acoustic trauma. The data set is classed as in vivo. To be noted: guinea pig, intratympanic, total 0.105 mg per ear, day 14. Here is the method: To induce an acoustic trauma, guinea pigs were anesthetized with 60 mg/kg ketamine and 8 mg/kg xylazine. Then Bepanten ointment (Bayer) was administered to the eyes and the animal was put in a soundproof chamber. A calibrated speaker was placed directly above the head of the animal, wherein it was set to emit a half octave band, centered around 8 kHz, with a volume of 110 dB for duration of 30 minutes.
The thermosensitive, liquid mixture was administered under view by a Hamilton syringe directly in front of the round window membrane of the middle ear (10 μL). The first dose 6-fluoro-9-methyl-β-carboline (e.g. 0.07 mg) was administered one hour after the acoustic trauma in a concentration of 0.007 mg/μL and the second dose 6-fluoro-9-methyl-β-carboline (0.035 mg in a volume of 5 μL) on day 3. Here, only one ear per animal was treated, while the second ear served as intra-individual control. The control here is particularly abbreviated to “contr.”. In comparative experiments it was found, that administration of just an active agent vehicle (hydrogel) has no effect in comparison to a fully untreated ear. For each active agent (including the controls) four guinea pigs were examined.
On day 14 after the acoustic trauma the region of the ear was dissected so that it contained the cochlea. […] In this way the sound induced damage can be localized and quantified. […]

A further data set concerns learning behavior. Description: Eight-armed labyrinth learning test. The data set is classed as in vivo, rat. The settings on record: rats, 2 mg/kg intraperitoneally daily, 2 hours before session; control group 14 days. Here is the method: In an eight-armed labyrinth the effect of 6F9MβC on the learning behavior was tested. 5 months old male rats were got used to the experimenter in daily sessions for 10 days. Afterwards, they were allowed to explore the labyrinth in multiple sessions for 2 days and they also learnt that they get a food reward there. Then the food was reduced until the body weight was reduced by 10% of the starting weight. Afterwards, at each end of the 8 arms of the labyrinth food was placed and a camera installed that recorded every movement of the animal. On the first test day the rat was placed without a prior injection on the platform in the center of the labyrinth. At the next day 2 mg/kg body weight 6-fluoro-9-methyl-β-carboline (6F9MβC) as free base dissolved in physiological sodium chloride solution was administered intraperitoneally to the rat by the experimenter. 2 hours later the animal was placed on the platform in the center of the labyrinth from where it had access to all arms. This procedure was repeated daily until the animal only did one mistake, i.e. went in an arm, which it had already entered before in the corresponding session. At the end of the session all 8 arms had to be visited.
12 rats, that were treated with 6F9MβC and a control group of 12 rats, that only got physiological sodium chloride solution, were examined. […]

Data set [3] can be described thus: Degradation in liver homogenate to toxic dimethylated degradation products (HPLC). The settings on record: rat liver homogenate, conclusion.
Protocol: Also a reference measurement with pure 6-fluoro-9-methyl-β-carboline (6F9MβC) was performed.
To simulate the degradation process in the liver, different concentrations (1 μM, 10 μM and 100 μM) of 6-fluoro-9-methyl-β-carboline (6F9MβC) were incubated with homogenized rat liver for an hour under physiological conditions (37° C. in physiological phosphate-buffered sodium chloride solution, PBS). Subsequently, a HPLC measurement of the filtrated extract was carried out.
The characterization of each substance was achieved by high-performance liquid chromatography (HPLC, partly also named as high-pressure liquid chromatography). For HPLC the eluent consisted to 45% of 90% acetonitrile and to 55% of ammonium acetate (40 mM, pH<5). The flow rate was 0.4 mL/min and injection volume was 10 μL. Each sample was diluted with 60% methanol, if the signal was too strong.

For `Cn1c2ccc(F)cc2c2ccncc21` [6F9MβC, 6-fluoro-9-methyl-β-carboline], the “NT3 expression relative to expression induced by 9MβC” value in the data set with NT3 (Neurotrophin 3) is reported as “approximately 3.5 times”. In data set [1], the “Cbln expression relative to expression induced by 9MβC” value was “approximately 1.5 times”. In data set [2], the “acoustic trauma-induced dying of outer hair cells” value is “could be prevented”. The “time until the criteria (only one mistake) were reached” value with learning behavior came out at 6 days. The “metabolization to known toxic (di-methylated) degradation products” value in data set [3] is listed as “does not lead to toxic di-methylated products”; in data set [3] (listed as 6-fluoro-9-methyl-β-carboline), “does not metabolize to known toxic degradation products”.

Values taken from patent US9630964B2, “Fluoro-9-methyl-β-carbolines” (priority 2013, dated 2017).
